For 26 compounds, IC50 results are on record in patent US8440710B2, “HSL inhibitors useful in the treatment of diabetes” (Hoffmann-La Roche Inc., priority 2009, dated 2013).

The term IC50 denotes the midpoint of a concentration-inhibition curve.

The assay deals with T1, human HSL (Homo sapiens, UniProt Q05469).
T1 construct: generate a full length human HSL ORF with a 3′-His6 tag; made in house; host or cells: High 5 insect cells (baculovirus, pFast-BAC)
T1 sequence (Q05469 1-1076): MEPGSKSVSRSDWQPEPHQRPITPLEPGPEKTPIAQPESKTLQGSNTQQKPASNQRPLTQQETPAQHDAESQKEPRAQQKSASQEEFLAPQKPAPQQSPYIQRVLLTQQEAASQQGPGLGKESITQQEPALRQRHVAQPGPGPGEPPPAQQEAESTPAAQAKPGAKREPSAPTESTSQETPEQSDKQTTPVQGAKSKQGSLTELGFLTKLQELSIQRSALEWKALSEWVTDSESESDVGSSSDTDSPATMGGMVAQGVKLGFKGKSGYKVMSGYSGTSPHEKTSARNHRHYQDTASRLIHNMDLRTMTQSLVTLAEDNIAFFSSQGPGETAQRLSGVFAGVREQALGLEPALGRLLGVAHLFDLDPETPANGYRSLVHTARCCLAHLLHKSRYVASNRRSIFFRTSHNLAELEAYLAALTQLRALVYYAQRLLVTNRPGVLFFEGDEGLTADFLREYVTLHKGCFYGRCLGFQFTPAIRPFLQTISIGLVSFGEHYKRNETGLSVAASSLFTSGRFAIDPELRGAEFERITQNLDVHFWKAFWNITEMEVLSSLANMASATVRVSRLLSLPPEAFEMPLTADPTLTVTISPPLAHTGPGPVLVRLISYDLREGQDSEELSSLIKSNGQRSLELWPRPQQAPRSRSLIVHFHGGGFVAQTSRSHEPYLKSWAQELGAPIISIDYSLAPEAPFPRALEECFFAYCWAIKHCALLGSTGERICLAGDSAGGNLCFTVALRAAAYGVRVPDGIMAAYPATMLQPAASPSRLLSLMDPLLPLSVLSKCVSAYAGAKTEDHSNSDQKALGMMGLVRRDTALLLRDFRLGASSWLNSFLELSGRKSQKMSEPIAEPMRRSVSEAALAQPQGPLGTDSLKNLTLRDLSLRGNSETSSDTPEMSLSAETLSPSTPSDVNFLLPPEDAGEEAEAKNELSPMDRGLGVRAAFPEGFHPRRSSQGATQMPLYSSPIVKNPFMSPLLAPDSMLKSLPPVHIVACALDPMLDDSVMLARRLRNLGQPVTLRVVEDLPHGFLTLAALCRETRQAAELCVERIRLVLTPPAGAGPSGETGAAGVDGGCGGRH
As to the kind of experiment: Human Hormone-Sensitive Lipase (HSL) enzyme inhibition assay (colorimetric, DMPT substrate). The format is biochemical. The following applies: human full length HSL-His6, 2,3-dimercapto-1-propanol tributyrate substrate, 37° C. 20 minutes, absorbance at 405 nm; read-out: HSL hum IC50. The gist of the method: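 Full-length human HSL with C-terminal His6, expressed in baculovirus-infected High 5 cells and Ni-NTA purified, was added (15 ug/ml stock) to 1.5 mM DMPT in 100 mM MOPS pH 7.2, 0.2 mg/ml fatty acid-free BSA containing compound. After 20 min at 37 °C, DTNB with SDS/Triton X-100 was added; A405 read after 15 min at RT.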
On to `CCCC[C@]1(O)CC[C@]2(CCN(c3ccc([C@@H](O)C(F)(F)F)cc3)C2=O)CC1` [Example 190, (5α,8α)-8-butyl-8-hydroxy-2-(4-((R)-2,2,2-trifluoro-1-hydroxyethyl)phenyl)-2-aza-spiro[4.5]decan-1-one], for which the 50% inhibitory concentration (IC50) is 10 nM.

In the case of `CCC[C@]1(O)CC[C@@]2(CCN(c3ccc(C(O)C(F)(F)F)cc3)C2=O)CC1` (stereo partly drawn) [Example 134, (5α,8β)-8-Hydroxy-8-propyl-2-(4-(2,2,2-trifluoro-1-hydroxyethyl)phenyl)-2-aza-spiro[4.5]decan-1-one], the IC50 came out at 1180 nM.

For the compound `CC(C)Oc1ccc(N2CC[C@]3(CC[C@@](O)(c4cnnn4C)CC3)C2=O)cc1` [Example 213], the IC50 was 390 nM.

`CC(C)C(O)[C@H]1CC[C@]2(CCN(c3ccc(C(C)(C)C)cc3)C2=O)CC1` (some centres unmarked) [Example 356]: the concentration for half-maximal inhibition (IC50) is 100 nM.

For `CCC[C@]1(O)CC[C@@]2(CCN(c3ccc(C4CC4)cc3)C2=O)CC1` [Example 76, (5α,8β)-2-(4-Cyclopropyl-phenyl)-8-hydroxy-8-propyl-2-aza-spiro[4.5]decan-1-one], the IC50 turned out to be 190 nM.

As to `COC[C@]1(O)CC[C@]2(CCN(c3ccc(CC(F)(F)F)cc3)C2=O)CC1` [Example 154, (5α,8α)-8-Hydroxy-8-methoxymethyl-2-[4-(2,2,2-trifluoro-ethyl)-phenyl]-2-aza-spiro[4.5]decan-1-one], the half-inhibitory concentration (IC50) is 30 nM.

Turning to `NC(=O)O[C@H]1CC[C@@]2(CCN(c3ccc(OC(F)(F)F)cc3)C2=O)CC1` [Example 30, Carbamic acid [(5α,8β)-1-oxo-2-(4-trifluoromethoxy-phenyl)-2-aza-spiro[4.5]dec-8-yl]ester], the IC50 came to 250 nM.

Regarding `COc1ccc(N2CC[C@]3(CC[C@@H](Oc4ccccc4)CC3)C2=O)cc1` [Example 48, (5α,8β)-2-(4-Methoxy-phenyl)-8-phenoxy-2-aza-spiro[4.5]decan-1-one], the 50% inhibitory concentration (IC50) amounted to 1710 nM.

For the compound `O=C1N(c2ccc(OS(=O)(=O)C3CC3)cc2)CC[C@]12CC[C@@](O)(C(F)(F)F)CC2` [Example 189, 4-((5α,8α)-8-hydroxy-1-oxo-8-(trifluoromethyl)-2-aza-spiro[4.5]decan-2-yl)phenyl cyclopropanesulfonate], the IC50 was 100 nM.

In the case of `CCC[C@]1(O)CC[C@]2(CCN(c3ccc(C(C)C)cc3)C2=O)CC1` [Example 204, (5α,8α)-8-hydroxy-2-(4-isopropylphenyl)-8-propyl-2-aza-spiro[4.5]decan-1-one], the IC50 turned out to be 20 nM.

As for `CCc1ccc(N2CC[C@]3(CC[C@H](OC(=O)NCc4cccc(F)c4)CC3)C2=O)cc1` [Example 45, (3-Fluoro-benzyl)-carbamic acid [(5α,8α)-2-(4-ethyl-phenyl)-1-oxo-2-aza-spiro[4.5]dec-8-yl]ester], the half-inhibitory concentration (IC50) was determined as 1110 nM.

With `CC(C)Oc1ccc(N2CC[C@]3(CC[C@@](O)(C(C)C)CC3)C2=O)cc1` [Example 196, (5α,8α)-8-hydroxy-2-(4-isopropoxyphenyl)-8-isopropyl-2-aza-spiro[4.5]decan-1-one], the IC50 worked out at 10 nM.

On to `CC(O)C1CCC2(CC1)CCN(c1ccc(C(C)(C)C)cc1)C2=O` (stereo not drawn) [Example 358, (5α,8α)-2-(4-tert-Butyl-phenyl)-8-(1-hydroxy-ethyl)-2-aza-spiro[4.5]decan-1-one], for which the IC50 came to 50 nM.

Turning to `CC(C)OC[C@]1(O)CC[C@@]2(CCN(c3ccc(O[C@@H](C)C(F)(F)F)cc3)C2=O)CC1` [Example 307, (5α,8β)-8-Hydroxy-8-isopropoxymethyl-2-[4-((S)-2,2,2-trifluoro-1-methyl-ethoxy)-phenyl]-2-aza-spiro[4.5]decan-1-one], the IC50 was 200 nM.

Turning to `CCS(=O)(=O)C[C@]1(O)CC[C@]2(CCN(c3ccc(OCC(F)(F)F)cc3)C2=O)CC1` [Example 275, (5α,8α)-8-Ethanesulfonylmethyl-8-hydroxy-2-[4-(2,2,2-trifluoro-ethoxy)-phenyl]-2-aza-spiro[4.5]decan-1-one], the half-maximal inhibitory concentration (IC50) is 80 nM.

In the case of `COc1cccc(CNC(=O)O[C@H]2CC[C@@]3(CCN(c4ccc(OC(F)(F)F)cc4)C3=O)CC2)c1` [Example 12, (3-Methoxy-benzyl)-carbamic acid [(5α,8β)-1-oxo-2-(4-trifluoromethoxy-phenyl)-2-aza-spiro[4.5]dec-8-yl]ester], the IC50 is 60 nM.

With `O=C1N(c2ccc(C3CC(F)(F)C3)cc2)CC[C@]12CC[C@@](O)(C(F)(F)F)CC2` [Example 340, (5α,8α)-2-[4-(3,3-Difluoro-cyclobutyl)-phenyl]-8-hydroxy-8-trifluoromethyl-2-aza-spiro[4.5]decan-1-one], the 50% inhibitory concentration (IC50) turned out to be 40 nM.

With `C[C@@H](Oc1ccc(N2CC[C@]3(CC[C@@](O)(COCC(F)F)CC3)C2=O)cc1)C(F)(F)F` [Example 301, (5α,8α)-8-(2,2-Difluoro-ethoxymethyl)-8-hydroxy-2-[4-((R)-2,2,2-trifluoro-1-methyl-ethoxy)-phenyl]-2-aza-spiro[4.5]decan-1-one], the IC50 was 10 nM.

For `CC(C)CCOC[C@]1(O)CC[C@]2(CCN(c3ccc(OCC(F)(F)F)cc3)C2=O)CC1` [Example 291, (5α,8α)-8-Hydroxy-8-(3-methyl-butoxymethyl)-2-[4-(2,2,2-trifluoro-ethoxy)-phenyl]-2-aza-spiro[4.5]decan-1-one], the IC50 turned out to be 20 nM.

In the case of `CC(C)[C@]1(O)CC[C@@]2(CCN(c3ccc(OCC(F)(F)F)cc3)C2=O)CC1` [Example 107, (5α,8β)-8-Hydroxy-8-isopropyl-2-(4-(2,2,2-trifluoroethoxy)phenyl)-2-aza-spiro[4.5]decan-1-one], the concentration for half-maximal inhibition (IC50) was found to be 2030 nM.

For `CCOC[C@]1(O)CC[C@@]2(CCN(c3ccc(O[C@@H](C)C(F)(F)F)cc3)C2=O)CC1` [Example 250, (5α,8β)-8-Ethoxymethyl-8-hydroxy-2-[4-((S)-2,2,2-trifluoro-1-methyl-ethoxy)-phenyl]-2-aza-spiro[4.5]decan-1-one], the 50% inhibitory concentration (IC50) was determined as 600 nM.

With `CCOC[C@]1(O)CC[C@]2(CCN(c3ccc(OC(F)(F)F)cc3)C2=O)CC1` [Example 117, (5α,8α)-8-Ethoxymethyl-8-hydroxy-2-(4-trifluoromethoxy-phenyl)-2-aza-spiro[4.5]decan-1-one], the IC50 amounted to 20 nM.

Turning to `CC1=CC[C@@]2(CC1)CCN(c1ccc(OC(F)(F)F)cc1)C2=O` [Example 59, 8-Methyl-2-(4-trifluoromethoxy-phenyl)-2-aza-spiro[4.5]dec-7-en-1-one], the concentration for half-maximal inhibition (IC50) is 1600 nM.

As for `CCCNC(=O)O[C@H]1CC[C@@]2(CCN(c3ccc(OC(F)(F)F)cc3)C2=O)CC1` [Example 11, Propyl-carbamic acid [(5α,8β)-1-oxo-2-(4-trifluoromethoxy-phenyl)-2-aza-spiro[4.5]dec-8-yl]ester], the half-maximal inhibitory concentration (IC50) worked out at 40 nM.

Consider `CCC(CC)OC[C@]1(O)CC[C@]2(CCN(c3ccc(O[C@@H](C)C(F)(F)F)nc3)C2=O)CC1` [Example 328, (5α,8α)-8-(1-Ethyl-propoxymethyl)-8-hydroxy-2-[6-((S)-2,2,2-trifluoro-1-methyl-ethoxy)-pyridin-3-yl]-2-aza-spiro[4.5]decan-1-one], for which the IC50 turned out to be 10 nM.

On to `COC[C@]1(O)CC[C@]2(CCN(c3ccc(O[C@@H](C)C(F)(F)F)cc3)C2=O)CC1` [Example 146, (5α,8α)-8-Hydroxy-8-methoxymethyl-2-[4-((S)-2,2,2-trifluoro-1-methyl-ethoxy)-phenyl]-2-aza-spiro[4.5]decan-1-one], for which the IC50 came to 20 nM.
